Source: US9469665B2, “Compound having lysophosphatidylserine receptor function modulation activity” (THE UNIVERSITY OF TOKYO, priority 2013, dated 2016)

Tests used:
Assay type in all cases: cell-based
[1] = biological target: T1, mouse GPR34 (Mus musculus, UniProt Q9R1K6); test: TGFα shedding assay, agonistic activity on GPR34; set-up: key to GPR34/LPS2 agonistic activity, TGFα shedding assay: an activity that is 100 folds that of control compound 1 as +++++; an activity that is 10 folds that of control compound 1 as ++++; the activity of the control compound 1 (LPS18:1) as +++; an activity that is 1/10 as ++; an activity that is 1/100 as +; an activity below that as −; conditions: for GPR34/LPS2 agonistic activity, TGFα shedding assay: HEK293 cells transfected with mouse GPR34 and AP labeled TGFα, activity relative to control compound 1 (LPS18:1) = +++
T1 construct: expressed in transfected cells; host or cells: HEK293
Method: (§1) [Test Example 1]Assay of Agonistic Activity by TGFα Shedding Assay
(§2) HEK293 cells were suspended in the Dulbecco's modified Eagle's medium (DMEM) containing 10% fetal bovine serum (FCS) to exist in an amount of 2.0×10^5 cells/mL, and they were seeded in 60 mm dishes at 4 mL per dish. Transfection of different expression vectors was performed using LipofectAMINE 2000 (Invitrogen) after 24 hours of culture under the presence of 5% CO2. For each 60 mm dish, 1 μg of AP labeled TGFα plasmid vectors were used, and 1 μg of pCAGGS plasmid vectors of mouse GPR34, P2Y10 or GPR174 were used. The plasmid vectors were prepared by methods disclosed in Patent Documents 2 and 5. Note that the AP labeled TGFα is a protein comprising a membrane-bound pro-TGFα whose N terminal end is fused with human placental alkaline phosphatase, and the plasmid vector of the AP labeled TGFα may be produced based on the teaching of Tokumaru et al., J Cell Biol 151, 209-220 (2000). After 24 hours of transfection, the cells were peeled off using trypsin/EDTA, and they were re-suspended in a culture medium to form an amount of 2.0×10^4 cells/well to be seeded to a 96-well plate. Hanks' Balanced Salt Solution (HBSS, containing 5 mM HEPES) was used for the re-suspended solution when stimulating with the compound. After it was left still for 30 min., subject compounds of various concentrations were added and the solutions were left still for another 1 hour under the presence of 5% CO2. The 96-well plate was subjected to centrifugation (190×g, 3 min.), then 80 μl of supernatant was transferred to a different 96-well plate. A reaction buffer (40 mM Tris-HCl (pH 9.5)) containing 10 mM p-nitrophenyl phosphate (p-NPP) was added in an amount of 80 μL to the supernatant and cells. The OD405 was measured with a micro plate reader (background), then after heating at 37° C. for an hour, OD405 was re-measured. The AP activity for each well was obtained by subtracting the background from the second absorbance and plugging the difference into the following formula.
(§3) In addition, the value obtained by subtracting the AP activity (%) of the non-stimulated group was used in the vertical axis to create a graph. The graphs of the test results for Example 3 (lysoPS sn-1-deoxy sn3 C3-ph-o-OBn-m-Oph) and Example 31 (lysoPS sn-1-OMe sn3 C3-ph-o-OBn-m-Oph) are shown in FIG. 1.
(§4) The obtained activity is shown by plotting the compound concentration and AP activity (%), then representing the activity of the control compound 1 (LPS18:1) as +++, an activity that is 10 folds that of control compound 1 as ++++, an activity that is 100 folds that of control compound 1 as +++++, an activity that is 1/10 as ++, and an activity that is 1/100 as +, and an activity below that as −.

[2] = biological target: T2, mouse P2Y10 (Mus musculus, UniProt Q8BFU7); test: TGFα shedding assay, agonistic activity on P2Y10; set-up: key: an activity that is 100 folds that of control compound 1 as +++++; an activity that is 10 folds that of control compound 1 as ++++; the activity of the control compound 1 (LPS18:1) as +++; an activity that is 1/10 as ++; an activity that is 1/100 as +; an activity below that as −; conditions: HEK293 cells transfected with mouse P2Y10 and AP labeled TGFα; activity relative to control compound 1 (LPS18:1) = +++
T2 construct: expressed in transfected cells; host or cells: HEK293
Method: as §1, §2, §3, §4

[3] = biological target: T3, mouse GPR174 (Mus musculus, UniProt Q3U507); test: TGFα shedding assay, agonistic activity on GPR174; set-up: key: an activity that is 100 folds that of control compound 1 as +++++; an activity that is 10 folds that of control compound 1 as ++++; the activity of the control compound 1 (LPS18:1) as +++; an activity that is 1/10 as ++; an activity that is 1/100 as +; an activity below that as −; conditions: HEK293 cells transfected with mouse GPR174 and AP labeled TGFα; activity relative to control compound 1 (LPS18:1) = +++
T3 construct: expressed in transfected cells; host or cells: HEK293
Method: as §1, §2, §3, §4

T2 sequence (Q8BFU7 whole entry): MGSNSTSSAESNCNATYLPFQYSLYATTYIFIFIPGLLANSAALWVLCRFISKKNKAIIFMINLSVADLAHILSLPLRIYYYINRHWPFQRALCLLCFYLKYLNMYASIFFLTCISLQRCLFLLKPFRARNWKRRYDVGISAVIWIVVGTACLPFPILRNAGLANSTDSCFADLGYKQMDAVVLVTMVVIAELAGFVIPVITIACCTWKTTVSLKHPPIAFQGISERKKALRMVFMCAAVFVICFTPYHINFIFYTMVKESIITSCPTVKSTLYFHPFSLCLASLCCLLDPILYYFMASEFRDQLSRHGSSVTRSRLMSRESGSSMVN
T3 sequence (Q3U507 whole entry): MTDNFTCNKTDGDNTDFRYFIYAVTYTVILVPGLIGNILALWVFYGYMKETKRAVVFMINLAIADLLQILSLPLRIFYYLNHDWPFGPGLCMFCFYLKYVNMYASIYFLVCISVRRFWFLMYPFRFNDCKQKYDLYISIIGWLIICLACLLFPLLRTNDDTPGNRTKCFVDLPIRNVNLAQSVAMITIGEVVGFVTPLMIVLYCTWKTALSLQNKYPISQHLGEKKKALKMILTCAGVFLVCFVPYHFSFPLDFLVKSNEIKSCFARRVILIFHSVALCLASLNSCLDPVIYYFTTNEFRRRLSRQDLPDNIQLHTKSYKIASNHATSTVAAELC
T1 sequence (Q9R1K6 whole entry): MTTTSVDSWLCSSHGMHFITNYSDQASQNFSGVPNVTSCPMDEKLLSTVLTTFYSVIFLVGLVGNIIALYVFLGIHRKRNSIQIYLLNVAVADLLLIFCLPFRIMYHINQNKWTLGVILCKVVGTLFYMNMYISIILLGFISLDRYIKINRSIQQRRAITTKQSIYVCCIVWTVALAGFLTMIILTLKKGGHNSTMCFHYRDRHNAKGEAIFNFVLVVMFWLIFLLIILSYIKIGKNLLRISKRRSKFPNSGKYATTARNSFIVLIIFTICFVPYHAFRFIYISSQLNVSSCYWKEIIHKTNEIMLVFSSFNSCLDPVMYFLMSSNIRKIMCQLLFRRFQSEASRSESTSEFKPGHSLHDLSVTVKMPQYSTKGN

GPR34/LPS2 agonistic activity, TGFα shedding assay [1] | P2Y10/LPS2 agonistic activity, TGFα shedding assay [2] | GPR174/LPS3 agonistic activity, TGFα shedding assay [3] | Structure (SMILES) | receptor selectivity of agonist activity among GPR34, P2Y10, GPR174 (graphs of FIG. 1) ([1]; TGFα shedding assay, HEK293 cells, AP activity (%) vs concentration)
++++ | ++ | +~++ | CCCCCCCC/C=C\CCCCCCCC(=O)OC[C@@H](C)OP(=O)(O)OC[C@H](N)C(=O)O [Example 1, (9Z)-Octadeca-9-enoic acid (2R)-2-[((2S)-2-amino-2-carboxy-ethoxy)-hydroxy-phosphoryloxy]-propyl ester] | 
+++ | ++~+++ | +~++ | CCCCCCCC/C=C\CCCCCCCC(=O)OC[C@H](C)OP(=O)(O)OC[C@H](N)C(=O)O [Example 2, (9Z)-Octadeca-9-enoic acid (2S)-2-[((2S)-2-amino-2-carboxy-ethoxy)-hydroxy-phosphoryloxy]-propyl ester] | 
+++++ | ++ | − | C[C@H](COC(=O)CCc1ccccc1OCc1cccc(Oc2ccccc2)c1)OP(=O)(O)OC[C@H](N)C(=O)O [Example 3, (2S)-2-amino-3-[hydroxyl-((1R)-1-methyl-2-{3-[2-(3-phenoxy-benzyloxy)-phenyl]-propionyloxy}-ethoxy)-phosphoryloxy]-propionic acid] | agonists having selectivity against GPR34
++++ | + | − | CCCCCCCC/C=C\CCCCCCCC(=O)OC[C@@H](COC)OP(=O)(O)OC[C@H](N)C(=O)O [Example 4, (9Z)-Octadeca-9-enoic acid (2R)-2-[((2S)-2-amino-2-carboxy-ethoxy)-hydroxy-phosphoryloxy]-3-methoxy-propyl ester] | 
++ | + | − | CCCCCCCC/C=C\CCCCCCCC(=O)OC[C@H](COC)OP(=O)(O)OC[C@H](N)C(=O)O [Example 5, (9Z)-Octadeca-9-enoic acid (2S)-2-[((2S)-2-amino-2-carboxy-ethoxy)-hydroxy-phosphoryloxy]-3-methoxy-propyl ester] | 
+++++ | + | − | CCCCCCCC/C=C\CCCCCCCC(=O)OC[C@@H](COCC)OP(=O)(O)OC[C@H](N)C(=O)O [Example 6, (9Z)-Octadeca-9-enoic acid (2R)-2-[((2S)-2-amino-2-carboxy-ethoxy)-hydroxy-phosphoryloxy]-3-ethoxypropyl ester] | 
++ | − | − | CCCCCCCC/C=C\CCCCCCCC(=O)OC[C@@H](COCc1ccccc1)OP(=O)(O)OC[C@H](N)C(=O)O [Example 7, (9Z)-Octadeca-9-enoic acid (2R)-2-[((2S)-2-amino-2-carboxy-ethoxy)-hydroxy-phosphoryloxy]-3-benzyloxy-propyl ester] | 
+++~++++ | +++ | − | CCCCCCCCCCCOc1ccccc1CCC(=O)O[C@@H]1CCOC[C@H]1OP(=O)(O)OC[C@H](N)C(=O)O [Example 8, (2S)-2-amino-3-((3R,4R)-hydroxy-{4-[3-(2-undecyloxy-phenyl)-propionyloxy]-tetrahydro-pyran-3-yloxy}-phosphoryloxy)-propionic acid] | 
++++~+++++ | ++~+++ | − | CCCCCCCCCCCOc1ccccc1CCC(=O)O[C@@H]1COCC[C@H]1OP(=O)(O)OC[C@H](N)C(=O)O [Example 9, (2S)-2-amino-3-(hydroxyl-{(3R,4R)-3-[3-(2-undecyloxy-phenyl)-propionyloxy]-tetrahydropyran-4-yloxy}-phosphoryloxy)-propionic acid] | 
− | ++~+++ | − | CCCCCCCCCCCOc1ccccc1CCC(=O)O[C@H]1CCOC[C@@H]1OP(=O)(O)OC[C@H](N)C(=O)O [Example 10, (2S)-2-amino-3-(hydroxy-{(3S,4S)-4-[3-(2-undecyloxy-phenyl)-propionyloxy]-tetrahydro-pyran-3-yloxy}-phosphoryloxy)-propionic acid] | 
− | ++ | − | CCCCCCCCCCCOc1ccccc1CCC(=O)O[C@H]1COCC[C@@H]1OP(=O)(O)OC[C@H](N)C(=O)O [Example 11, (2S)-2-amino-3-(hydroxy-{(3S,4S)-3-[3-(2-undecyloxy-phenyl)-propionyloxy]-tetrahydro-pyran-4-yloxy}-phosphoryloxy)-propionic acid] | 
− | + | − | CCCCCCCCCCCOc1ccc(C(C)(C)C)cc1CCC(=O)O[C@H]1COCC[C@@H]1OP(=O)(O)OC[C@H](N)C(=O)O [Example 12, (2S)-2-amino-3-({(3S,4S)-3-[3-(5-tert-butyl-2-undecyloxy-phenyl)-propionyloxy]-tetrahydro-pyran-4-yloxy}-hydroxy-phosphoryloxy)-propionic acid] | 
++ | −~+ | − | N[C@@H](COP(=O)(O)OC[C@H]1OCCC[C@@H]1OC(=O)CCc1ccccc1OCc1cccc(Oc2ccccc2)c1)C(=O)O [Example 13, (2S)-2-amino-3-[hydroxyl-((2R,3S)-3-{3-[2-(3-phenoxy-benzyloxy)-phenyl]-propionyloxy}-tetrahydro-pyran-2-ylmethoxy)-phosphoryloxy]-propionic acid] | 
− | + | − | CCCCCCCCCCCOc1ccccc1CCC(=O)O[C@H]1CCCO[C@@H]1COP(=O)(O)OC[C@H](N)C(=O)O [Example 14, (2S)-2-amino-3-(hydroxy-{(2R,3S)-3-[3-(2-undecyloxy-phenyl)-propionyloxy]-tetrahydro-pyran-2-ylmethoxy}-phosphoryloxy)-propionic acid] | 
++ | − | − | CCCCCCCC/C=C\CCCCCCCC(=O)OC[C@H]1OCCC[C@H]1OP(=O)(O)OC[C@H](N)C(=O)O [Example 15, (9Z)-Octadeca-9-enoic acid (2R,3R)-3-[((2S)-2-amino-2-carboxy-ethoxy)-hydroxy-phosphoryloxy]-tetrahydropyran-2-ylmethyl ester] | 
